ChEMBL document CHEMBL3593230, “Randainins A-D, Based on Unique Diterpenoid Architectures, from Callicarpa randaiensis” (J Nat Prod, 2015)
The source made the active and inactive calls. The calls are words filed in the database; no cut-off is given here.

System: not listed separately
Assay: Cytotoxicity against human Hep2 cells incubated for 3 days by MTT assay
Format: functional, cell-based
Conditions: HEp-2, 72 h
In the case of `C[C@@H]1C[C@H]2C(=O)C(C)(C)[C@H](O)CC[C@]2(O)[C@@]1(C)CCC1=CC(=O)OC1`, the IC50 is reported as > 10 µM.
With `C[C@@H]1C[C@H]2C(=O)C(C)(C)[C@H](OC=O)CC[C@]2(O)[C@@]1(C)CCC1=CC(=O)OC1` the IC50 was > 10 µM.
In the case of `C[C@@H]1CC[C@]2(O)[C@H](C[C@@H](O)C2(C)C)C(=O)[C@@]1(C)CCC1=CC(=O)OC1`, the IC50 is reported as > 10 µM.
With `C[C@@H]1CC[C@@]2(O)[C@@H](C[C@@H](O)C2(C)C)C(=O)[C@@]1(C)CCC1=CC(=O)OC1` the IC50 was > 10 µM.

System: Neutrophil
Assay: Anti-inflammatory activity in human neutrophils assessed as inhibition of fMLP/CB-induced elastase release incubated for 5 mins followed by fMLP/CB stimulation using MeO-Suc-Ala-Ala-Pro-Val-p-nitroanilide substrate
Format: functional, cell-based
Conditions: not given
With `C[C@@H]1C[C@H]2C(=O)C(C)(C)[C@H](O)CC[C@]2(O)[C@@]1(C)CCC1=CC(=O)OC1` the inhibition was “inactive”.
For `C[C@@H]1C[C@H]2C(=O)C(C)(C)[C@H](OC=O)CC[C@]2(O)[C@@]1(C)CCC1=CC(=O)OC1`, the inhibition was “inactive”.
In the case of `C[C@@H]1CC[C@@]2(O)[C@@H](C[C@@H](O)C2(C)C)C(=O)[C@@]1(C)CCC1=CC(=O)OC1`, the inhibition is reported as “inactive”.

System: A549
Assay: Cytotoxicity against human A549 cells incubated for 3 days by MTT assay
Format: functional, cell-based
Conditions: A549, 72 h
With `C[C@@H]1C[C@H]2C(=O)C(C)(C)[C@H](O)CC[C@]2(O)[C@@]1(C)CCC1=CC(=O)OC1` the IC50 was > 10 µM.
With `C[C@@H]1C[C@H]2C(=O)C(C)(C)[C@H](OC=O)CC[C@]2(O)[C@@]1(C)CCC1=CC(=O)OC1` the IC50 was > 10 µM.
For `C[C@@H]1CC[C@]2(O)[C@H](C[C@@H](O)C2(C)C)C(=O)[C@@]1(C)CCC1=CC(=O)OC1`, the IC50 was > 10 µM.
For `C[C@@H]1CC[C@@]2(O)[C@@H](C[C@@H](O)C2(C)C)C(=O)[C@@]1(C)CCC1=CC(=O)OC1`, the IC50 was > 10 µM.

System: not listed separately
Assay: Anti-inflammatory activity in human neutrophils assessed as inhibition of fMLP/CB-induced superoxide anion generation incubated for 5 mins followed by fMLP/CB stimulation for 10 mins by spectrophotometry
Format: functional, cell-based, Neutrophil
Conditions: Homo sapiens, Neutrophil; read-out: IC50
`C[C@@H]1CC[C@]2(O)[C@H](C[C@@H](O)C2(C)C)C(=O)[C@@]1(C)CCC1=CC(=O)OC1` showed an IC50 of 21.5 µM.

Same assay, conditions: neutrophil
For `C[C@@H]1C[C@H]2C(=O)C(C)(C)[C@H](O)CC[C@]2(O)[C@@]1(C)CCC1=CC(=O)OC1`, the IC50 was “Not Active”.
In the case of `C[C@@H]1C[C@H]2C(=O)C(C)(C)[C@H](OC=O)CC[C@]2(O)[C@@]1(C)CCC1=CC(=O)OC1`, the IC50 is reported as “Not Active”.
In the case of `C[C@@H]1CC[C@@]2(O)[C@@H](C[C@@H](O)C2(C)C)C(=O)[C@@]1(C)CCC1=CC(=O)OC1`, the IC50 is reported as “Not Active”.

System: MCF7
Assay: Cytotoxicity against human MCF7 incubated for 3 days by MTT assay
Format: functional, cell-based
Conditions: MCF7, 72 h
With `C[C@@H]1C[C@H]2C(=O)C(C)(C)[C@H](O)CC[C@]2(O)[C@@]1(C)CCC1=CC(=O)OC1` the IC50 was > 10 µM.
For `C[C@@H]1C[C@H]2C(=O)C(C)(C)[C@H](OC=O)CC[C@]2(O)[C@@]1(C)CCC1=CC(=O)OC1`, the IC50 was > 10 µM.
In the case of `C[C@@H]1CC[C@]2(O)[C@H](C[C@@H](O)C2(C)C)C(=O)[C@@]1(C)CCC1=CC(=O)OC1`, the IC50 is reported as > 10 µM.
For `C[C@@H]1CC[C@@]2(O)[C@@H](C[C@@H](O)C2(C)C)C(=O)[C@@]1(C)CCC1=CC(=O)OC1`, the IC50 was > 10 µM.

System: HepG2
Assay: Cytotoxicity against human HepG2 cells incubated for 3 days by MTT assay
Format: functional, cell-based
Conditions: HepG2, 72 h
In the case of `C[C@@H]1C[C@H]2C(=O)C(C)(C)[C@H](O)CC[C@]2(O)[C@@]1(C)CCC1=CC(=O)OC1`, the IC50 is reported as > 10 µM.
In the case of `C[C@@H]1C[C@H]2C(=O)C(C)(C)[C@H](OC=O)CC[C@]2(O)[C@@]1(C)CCC1=CC(=O)OC1`, the IC50 is reported as > 10 µM.
In the case of `C[C@@H]1CC[C@]2(O)[C@H](C[C@@H](O)C2(C)C)C(=O)[C@@]1(C)CCC1=CC(=O)OC1`, the IC50 is reported as > 10 µM.
In the case of `C[C@@H]1CC[C@@]2(O)[C@@H](C[C@@H](O)C2(C)C)C(=O)[C@@]1(C)CCC1=CC(=O)OC1`, the IC50 is reported as > 10 µM.

System: not listed separately
Assay: Anti-inflammatory activity in human neutrophils assessed as inhibition of fMLP/CB-induced elastase release at 28.6 uM incubated for 5 mins followed by fMLP/CB stimulation using MeO-Suc-Ala-Ala-Pro-Val-p-nitroanilide substrate
Format: functional
Conditions: Neutrophil
`C[C@@H]1CC[C@]2(O)[C@H](C[C@@H](O)C2(C)C)C(=O)[C@@]1(C)CCC1=CC(=O)OC1` showed an inhibition at 28.6 µM of 35.9%.
